Patent EP4471048A1, “PEPTIDE INHIBITORS OF INTERLEUKIN-23 RECEPTOR” (Zealand Pharma A/S, priority 2023, dated 2024)
pIC50: −log10 of the molar value. *1 amine or outer side, *2 acyl side, *3 side chain or, on linkers, in order; H or OH if unused. Where a SMILES comes first, the peptide text is derived from it. Bridges are numbered along the chain shown (N, C = ends). [ ]: non-standard residue; d: D form. The star is where a group is joined. X23 = O=C(CCCCCc1cccnc1)N[C@@H](CCN[*:2])C(=O)[*:1]; NH(4-(3-pyridyl)butyl) = c1cncc(CCCCN*)c1; Phe(4-Me) = Cc1ccc(C[C@H](N)C(=O)O)cc1; 2Nal = N[C@@H](Cc1ccc2ccccc2c1)C(=O)O; AEF = NCCOc1ccc(C[C@H](N)C(=O)O)cc1; αMeL = CC(C)C[C@](C)(N)C(=O)O

Target: T1, human IL-23R (Homo sapiens, UniProt Q5VWK5)
T1 sequence (Q5VWK5 22-629): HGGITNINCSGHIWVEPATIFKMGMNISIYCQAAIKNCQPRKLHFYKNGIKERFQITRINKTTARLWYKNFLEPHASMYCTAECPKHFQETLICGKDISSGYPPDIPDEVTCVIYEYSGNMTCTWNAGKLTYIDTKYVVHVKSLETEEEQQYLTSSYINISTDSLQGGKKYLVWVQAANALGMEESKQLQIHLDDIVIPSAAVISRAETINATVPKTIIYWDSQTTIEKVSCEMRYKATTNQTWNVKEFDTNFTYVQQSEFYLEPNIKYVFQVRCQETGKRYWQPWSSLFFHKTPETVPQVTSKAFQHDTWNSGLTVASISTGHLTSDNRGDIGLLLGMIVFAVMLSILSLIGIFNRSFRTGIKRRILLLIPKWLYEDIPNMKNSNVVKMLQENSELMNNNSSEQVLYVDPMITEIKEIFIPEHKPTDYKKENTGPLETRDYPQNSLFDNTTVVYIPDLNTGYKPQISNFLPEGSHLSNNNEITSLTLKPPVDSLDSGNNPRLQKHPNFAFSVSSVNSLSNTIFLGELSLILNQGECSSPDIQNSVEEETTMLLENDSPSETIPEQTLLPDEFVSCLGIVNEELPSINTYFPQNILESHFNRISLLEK
Assay: biochemical
Conditions: for Emax: read-out: % displacement (hIL-23R NIuc)
From the text: The compound binding affinity for IL-23R was estimated by the ability of compounds to displace a fluorophore-labelled reference compound from the human IL-23R. The assay principle relies on Bioluminescence Resonance Energy Transfer (BRET) between a fluorophore-labelled reference compound binding to the IL-23R part of a fusion protein consisting of the IL-23R fused to a Nanoluc luciferase enzyme (Nanoluc). The Nanoluc is placed in the N-terminus in close proximity to the binding domain of the ligand. Upon close proximity between the fluorophore of the fluorophore-labelled compound and the Nanoluc of the fusion protein, bioluminescence energy generated from conversion of a Nanoluc substrate, is transferred to the fluorophore resulting in an increase in BRET. In presence of an unlabelled compound, the unlabelled compound displaces the fluorophore-labelled peptide from its binding site resulting in a decrease in BRET. The concentration for which half of the fluorophore-labelled peptide is displaced by the unlabelled compound depends on the affinity of the compound for the IL-23R, and is termed the IC50 concentration.
The plasmid also contained a gene to confer resistance for the antibiotic hygromycin. A cell line stably expressing the Nluc-IL23R fusion protein was generated by transfection of HEK293 cells with the expression plasmid and selected with hygromycin for 3 weeks in Growth medium consisting of DMEM w/ Glutamax-I containing, 10% V/V FBS, 1% V/V P/S, 1 mM Sodium Pyruvate, and 1X NEAA, and 0.3 mg/mL hygromycin. The remaining cells were propagated and considered a stable expressing Nluc-IL23R fusion protein pool clone.
Cells expressing the Nluc-IL23R fusion protein were expanded in Growth medium and membranes prepared by homogenization of a cell pellet from 18 T175 flasks (4 °C in subsequent steps). The cell pellet was lysed Tris 10 mM, 7.5, 1 mM EDTA and protease inhibitors (Complete, Roche) and homogenized using a 15 mL glass-dounce by 50 strokes. The homogenate was spun at spin @1500 rpm for 10 min, the supernatant transferred to SV-34 tubes and spun at 40000g for 20 min at 4 °C to pellet the crude membranes. The supernatant was then removed, the pellet resuspended in 5 mL buffer containing 50 mM HEPES pH 7.4, 5 mM EGTA, and 5 mM MgCl2, and homogenized. Aliquots of the resuspended and homogenized membranes containing the Nluc-IL23R fusion protein were stored at -80 °C until use.
The plate was sealed with light impermeable plate seals, and incubated on an orbital shaker 400 rpm for 2 hours at room temperature. To determine the BRET ratio, the plate seal was removed and 25 µL of the Nanoluc substrate (Promega N1572) diluted 1:500 was added to each well and incubated for 1-2 minutes on an orbital shaker at 400 rpm. […] The BRET ratio was calculated as the fluorescence from the TAMRA/nanoluc bioluminescence.
Compound potency (IC50) and maximal displacement (% displacement) were estimated by computer-aided curve fitting using a 4-parameter logistic (4PL) non-linear model. […]
In this application, the inventors provide the data as IC50 values.

% displacement (hIL-23R NIuc) [%]	pIC50	Emax [%]	Compound
100	8.07		CC[C@H](C)[C@@H]1NC(=O)[C@@H]2CCCCNC(=O)CC[C@@H](C(=O)N[C@@H](CCN)C(=O)N[C@H](Cc3cccnc3)C(N)=O)NC(=O)[C@](C)(C(C)C)NC(=O)[C@H](Cc3ccc4ccccc4c3)NC(=O)[C@H](Cc3ccc(C)cc3)NC(=O)[C@H](CCC(=O)N2)NC(=O)[C@H](CCC(N)=O)NC(=O)[C@H](Cc2c[nH]c3ccccc23)NC(=O)[C@H](C(C)C)NC1=O [Compound 18, K(1c)(6c)^†IVWQE(6c)[F(4-Me)][2-Nal][2-Me-Val]E(1c)[Dab][{d}3-(3-Pyridyl)-Ala]-[NH2]]
108	6.82		CC[C@H](C)[C@@H]1NC(=O)[C@@H]2CCCCNC(=O)CC[C@@H](C(=O)NCC(=O)N[C@H](Cc3cccnc3)C(N)=O)NC(=O)[C@](C)(C(C)C)NC(=O)[C@H](Cc3ccc4ccccc4c3)NC(=O)[C@H](CC3CC3)NC(=O)[C@H](CCC(=O)N2)NC(=O)[C@H](CCC(N)=O)NC(=O)[C@H](Cc2c[nH]c3ccccc23)NC(=O)[C@H](C(C)C)NC1=O [Compound 20, K(1c)(6c)^†IVWQE(6c)[Cyclopropyl-Ala][2-Nal][2-Me-Val]E(1c)G[{d}3-(3-Pyridyl)-Ala]-[NH2]]
101	6.00		CC[C@H](C)[C@@H]1NC(=O)[C@@H]2CCCCNC(=O)CC[C@@H](C(=O)NCC(=O)N[C@H](Cc3cccnc3)C(N)=O)NC(=O)[C@](C)(C(C)C)NC(=O)[C@H](Cc3ccc4ccccc4c3)NC(=O)[C@](C)(Cc3ccccc3)NC(=O)[C@H](CCC(=O)N2)NC(=O)[C@H](CCC(N)=O)NC(=O)[C@H](Cc2c[nH]c3ccccc23)NC(=O)[C@H](C(C)C)NC1=O [Compound 21, K(1c)(6c)^†IVWQE(6c)[2-Me-Phe][2-Nal][2-Me-Val]E(1c)G[{d}3-(3-Pyridyl)-Ala]-[NH2]]
	6.01	86	CC[C@H](C)[C@@H]1NC(=O)[C@@H]2CCCCNC(=O)CC[C@@H](C(=O)NCC(=O)N[C@H](Cc3cccnc3)C(N)=O)NC(=O)[C@](C)(C(C)C)NC(=O)[C@H](Cc3ccc4ccccc4c3)NC(=O)[C@@H](Cc3ccccc3)NC(=O)[C@H](CCC(=O)N2)NC(=O)[C@H](CCC(N)=O)NC(=O)[C@H](Cc2c[nH]c3ccccc23)NC(=O)[C@H](C(C)C)NC1=O [Compound 22, K(1c)(6c)^†IVWQE(6c)[{d}F][2-Nal][2-Me-Val]E(1c)G[{d}3-(3-Pyridyl)-Ala]-[NH2]]
111	7.05		CC[C@H](C)[C@@H]1NC(=O)[C@@H]2CCCCNC(=O)CC[C@@H](C(=O)NCC(=O)N[C@H](Cc3cccnc3)C(N)=O)NC(=O)[C@](C)(C(C)C)NC(=O)[C@H](CC3CC3)NC(=O)[C@H](Cc3ccc(C)cc3)NC(=O)[C@H](CCC(=O)N2)NC(=O)[C@H](CCC(N)=O)NC(=O)[C@H](Cc2c[nH]c3ccccc23)NC(=O)[C@H](C(C)C)NC1=O [Compound 23, K(1c)(6c)^†IVWQE(6c)[F(4-Me)][Cyclopropyl-Ala][2-Me-Val]E(1c)G[{d}3-(3-Pyridyl)-Ala]-[NH2]]
		91	Cc1ccc(C[C@@H]2NC(=O)[C@@H]3CCC(=O)N[C@@H](CCCCNC(=O)[C@@H](NC(=O)CCCCCc4cccnc4)CCNC(=O)[C@](C)(CC(C)C)NC(=O)[C@H](Cc4ccc5ccccc5c4)NC2=O)C(=O)N[C@@H]([C@@H](C)O)C(=O)N[C@@H](C(C)C)C(=O)N[C@@H](Cc2c[nH]c4ccccc24)C(=O)N[C@@H](CCC(N)=O)C(=O)N3)cc1 [Compound 25, K(1c)(6c)^†TVWQE(6c)[Y(2-aminoethoxy)][2-Nal][2-Me-Leu][iso-Dab](1c)^‡-[6-(3-pyridyl)hexanoyl]] (KTVWQE[Phe(4-Me)][2Nal][αMeL]; linker 1-C via X23; lactam N-6)
97	6.70		CC[C@H](C)[C@@H]1NC(=O)[C@@H]2CCCCNC(=O)CC[C@@H](C(=O)NCCCCc3cccnc3)NC(=O)[C@](C)(C(C)C)NC(=O)[C@H](Cc3ccc4ccccc4c3)NC(=O)[C@H](Cc3ccc(OCCN)cc3)NC(=O)[C@H](CCC(=O)N2)NC(=O)[C@H](CCC(N)=O)NC(=O)[C@H](Cc2c[nH]c3ccccc23)NC(=O)[C@H](C(C)C)NC1=O [Compound 28, K(1c)(6c)^†IVWQE(6c)[Y(2-aminoethoxy)][2-Nal][2-Me-Val]E(1c)-[NH-4-(pyridin-3-yl)butanyl]]
	6.32	95	CC[C@H](C)[C@@H]1NC(=O)[C@@H]2CCCCNC(=O)CC[C@@H](C(=O)NCCCCCCc3cccnc3)NC(=O)[C@](C)(C(C)C)NC(=O)[C@H](Cc3ccc4ccccc4c3)NC(=O)[C@H](Cc3ccc(OCCN)cc3)NC(=O)[C@H](CCC(=O)N2)NC(=O)[C@H](CCC(N)=O)NC(=O)[C@H](Cc2c[nH]c3ccccc23)NC(=O)[C@H](C(C)C)NC1=O [Compound 29, K(1c)(6c)^†IVWQE(6c)[Y(2-aminoethoxy)][2-Nal][2-Me-Val]E(1c)-[NH-6-(pyridin-3-yl)hexanyl]]
101	7.70		CC(C)C[C@]1(C)NC(=O)[C@H](Cc2ccc3ccccc3c2)NC(=O)[C@H](Cc2ccc(OCCN)cc2)NC(=O)[C@@H]2CCC(=O)N[C@@H](CCCCNC(=O)CC[C@@H](C(=O)NCCCCc3cccnc3)NC1=O)C(=O)N[C@@H](CO)C(=O)N[C@@H](C(C)C)C(=O)N[C@@H](Cc1c[nH]c3ccccc13)C(=O)N[C@@H](CCC(N)=O)C(=O)N2 [Compound 30, K(1c)(6c)^†SVWQE(6c)[Y(2-aminoethoxy)][2-Nal][2-Me-Leu]E(1c)-[NH-4-(pyridin-3-yl)butanyl]]
98			CC(C)[C@@H]1NC(=O)[C@H](CO)NC(=O)[C@@H]2CCCCNC(=O)CC[C@@H](C(=O)NCCCCc3cccnc3)NC(=O)CNC(=O)[C@H](Cc3ccc4ccccc4c3)NC(=O)[C@H](Cc3ccc(OCCN)cc3)NC(=O)[C@H](CCC(=O)N2)NC(=O)[C@H](CCC(N)=O)NC(=O)[C@H](Cc2c[nH]c3ccccc23)NC1=O [Compound 31, K(1c)(6c)^†SVWQE(6c)[Y(2-aminoethoxy)][2-Nal]GE(1c)-[NH-4-(pyridin-3-yl)butanyl]] (KSVWQE[AEF][2Nal]GE-{NH(4-(3-pyridyl)butyl)}; lactam 1-10, N-6)
	6.49	99	CCCOc1ccc(C[C@@H]2NC(=O)[C@@H]3CCC(=O)N[C@@H](CCCCNC(=O)CC[C@@H](C(=O)NCCCCc4cccnc4)NC(=O)[C@](C)(CC(C)C)NC(=O)[C@H](Cc4ccc5ccccc5c4)NC2=O)C(=O)N[C@@H]([C@@H](C)CC)C(=O)N[C@@H](C(C)C)C(=O)N[C@@H](Cc2c[nH]c4ccccc24)C(=O)N[C@@H](CCC(N)=O)C(=O)N3)cc1 [Compound 32, K(1c)(6c)^†IVWQE(6c)[Y(nPr)][2-Nal][2-Me-Leu]E(1c)-[NH-4-(pyridin-3-yl)butanyl]]

Compound	% displacement (hIL-23R NIuc) [%]	pIC50	Emax [%]
CC[C@H](C)[C@@H]1NC(=O)[C@@H]2CCCCNC(=O)CC[C@@H](C(=O)NCCc3cccnc3)NC(=O)[C@](C)(C(C)C)NC(=O)[C@H](Cc3ccc4ccccc4c3)NC(=O)[C@H](Cc3ccc(OCCN)cc3)NC(=O)[C@@H](CCC(=O)N2)NC(=O)[C@H](CCC(N)=O)NC(=O)[C@H](Cc2c[nH]c3ccccc23)NC(=O)[C@H](C(C)C)NC1=O [Compound 27, K(1c)(6c)^†VWQ[{d}E](6c)[Y(2-aminoethoxy)][2-Nal][2-Me-Val]E(1c)-[NH-2-(pyridin-3-yl)ethyl]]	102	6.96	
